Drawing on ChEMBL document CHEMBL1140798, “Novel thiol-based TACE inhibitors. Part 2: Rational design, synthesis, and SAR of thiol-containing aryl sulfones” (Bioorg Med Chem Lett, 2008), this text covers Ki for seven molecules.

Experiment [1] concerns the target 72 kDa type IV collagenase (Homo sapiens, UniProt P08253). As to the kind of experiment: Inhibition of MMP2.
For experiment [2], the target named is T1, Matrilysin (Homo sapiens, UniProt P09237).
T1 sequence (P09237 whole entry): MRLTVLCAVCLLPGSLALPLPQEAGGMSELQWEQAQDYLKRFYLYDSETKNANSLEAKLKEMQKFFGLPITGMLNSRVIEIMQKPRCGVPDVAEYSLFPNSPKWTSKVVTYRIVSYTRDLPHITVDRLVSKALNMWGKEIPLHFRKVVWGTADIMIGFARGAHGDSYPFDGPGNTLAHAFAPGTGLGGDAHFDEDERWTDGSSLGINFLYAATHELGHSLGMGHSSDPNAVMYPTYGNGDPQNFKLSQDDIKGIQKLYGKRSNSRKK
As to the kind of experiment: Inhibition of MMP7.

The target in experiment [3] is Matrix metalloproteinase-9 (Homo sapiens, UniProt P14780). As to the kind of experiment: Inhibition of MMP9.
Experiment [4] deals with Collagenase 3 (Homo sapiens, UniProt P45452). As to the kind of experiment: Inhibition of MMP13.
Experiment [5] deals with Neutrophil collagenase (Homo sapiens, UniProt P22894). As to the kind of experiment: Inhibition of MMP8.
Experiment [6] concerns the target Disintegrin and metalloproteinase domain-containing protein 17 (Homo sapiens, UniProt P78536). Briefly: Inhibition of TACE.

Disintegrin and metalloproteinase domain-containing protein 17, sequence (P78536 whole entry, the tested form may be a part): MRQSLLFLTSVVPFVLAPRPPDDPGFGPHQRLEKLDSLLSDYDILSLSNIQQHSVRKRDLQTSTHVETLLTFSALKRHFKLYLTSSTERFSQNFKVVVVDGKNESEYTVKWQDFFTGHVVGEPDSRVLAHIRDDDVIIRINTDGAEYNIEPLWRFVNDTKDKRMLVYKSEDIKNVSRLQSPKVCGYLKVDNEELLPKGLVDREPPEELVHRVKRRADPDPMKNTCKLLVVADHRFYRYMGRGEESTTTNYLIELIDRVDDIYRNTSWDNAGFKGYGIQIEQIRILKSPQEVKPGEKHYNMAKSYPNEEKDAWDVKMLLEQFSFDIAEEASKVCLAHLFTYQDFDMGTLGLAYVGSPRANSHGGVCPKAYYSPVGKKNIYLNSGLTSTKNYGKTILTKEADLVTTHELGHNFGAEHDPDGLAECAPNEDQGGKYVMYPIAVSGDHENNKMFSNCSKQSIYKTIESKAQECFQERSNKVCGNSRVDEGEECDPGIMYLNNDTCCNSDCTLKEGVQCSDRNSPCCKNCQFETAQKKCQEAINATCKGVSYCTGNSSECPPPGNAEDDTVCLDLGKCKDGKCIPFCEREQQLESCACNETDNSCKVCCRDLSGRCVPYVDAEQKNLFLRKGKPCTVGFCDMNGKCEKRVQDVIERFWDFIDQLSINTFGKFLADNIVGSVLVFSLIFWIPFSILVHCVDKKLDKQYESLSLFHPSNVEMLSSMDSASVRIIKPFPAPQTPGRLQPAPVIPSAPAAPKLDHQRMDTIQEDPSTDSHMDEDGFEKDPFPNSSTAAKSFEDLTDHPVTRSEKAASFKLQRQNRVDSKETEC
Matrix metalloproteinase-9, sequence (P14780 whole entry): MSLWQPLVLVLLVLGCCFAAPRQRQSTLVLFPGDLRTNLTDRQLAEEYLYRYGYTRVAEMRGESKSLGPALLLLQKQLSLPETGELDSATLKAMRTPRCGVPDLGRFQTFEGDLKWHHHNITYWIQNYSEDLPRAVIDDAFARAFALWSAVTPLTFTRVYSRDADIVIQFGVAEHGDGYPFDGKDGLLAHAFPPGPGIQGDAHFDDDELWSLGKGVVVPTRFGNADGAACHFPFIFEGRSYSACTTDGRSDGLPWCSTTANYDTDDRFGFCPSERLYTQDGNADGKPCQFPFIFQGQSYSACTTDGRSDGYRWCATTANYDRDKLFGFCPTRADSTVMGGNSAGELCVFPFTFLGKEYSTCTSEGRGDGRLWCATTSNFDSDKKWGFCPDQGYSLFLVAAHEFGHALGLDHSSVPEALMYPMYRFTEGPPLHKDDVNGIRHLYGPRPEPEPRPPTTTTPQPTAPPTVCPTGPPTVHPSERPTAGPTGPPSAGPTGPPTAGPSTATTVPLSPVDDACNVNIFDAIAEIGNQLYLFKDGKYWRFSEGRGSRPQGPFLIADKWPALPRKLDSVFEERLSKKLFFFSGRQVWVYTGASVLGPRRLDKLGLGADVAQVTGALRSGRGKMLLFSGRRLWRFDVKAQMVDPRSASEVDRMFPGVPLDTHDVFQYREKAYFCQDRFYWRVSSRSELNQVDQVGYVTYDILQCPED
Neutrophil collagenase, sequence (P22894 whole entry, the tested form may be a part): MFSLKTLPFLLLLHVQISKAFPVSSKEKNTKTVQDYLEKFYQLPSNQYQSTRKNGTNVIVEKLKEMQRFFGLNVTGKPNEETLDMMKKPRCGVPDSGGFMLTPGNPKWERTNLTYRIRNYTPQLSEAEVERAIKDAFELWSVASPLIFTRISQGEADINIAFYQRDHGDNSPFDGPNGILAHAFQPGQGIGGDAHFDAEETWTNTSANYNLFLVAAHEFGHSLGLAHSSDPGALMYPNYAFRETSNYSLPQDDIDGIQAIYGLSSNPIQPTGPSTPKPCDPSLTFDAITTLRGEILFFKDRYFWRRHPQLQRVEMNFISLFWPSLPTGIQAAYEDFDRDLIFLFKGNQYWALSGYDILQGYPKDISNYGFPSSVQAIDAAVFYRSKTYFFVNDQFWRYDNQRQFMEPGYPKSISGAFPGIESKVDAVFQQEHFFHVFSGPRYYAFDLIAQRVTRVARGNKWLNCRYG
72 kDa type IV collagenase, sequence (P08253 whole entry): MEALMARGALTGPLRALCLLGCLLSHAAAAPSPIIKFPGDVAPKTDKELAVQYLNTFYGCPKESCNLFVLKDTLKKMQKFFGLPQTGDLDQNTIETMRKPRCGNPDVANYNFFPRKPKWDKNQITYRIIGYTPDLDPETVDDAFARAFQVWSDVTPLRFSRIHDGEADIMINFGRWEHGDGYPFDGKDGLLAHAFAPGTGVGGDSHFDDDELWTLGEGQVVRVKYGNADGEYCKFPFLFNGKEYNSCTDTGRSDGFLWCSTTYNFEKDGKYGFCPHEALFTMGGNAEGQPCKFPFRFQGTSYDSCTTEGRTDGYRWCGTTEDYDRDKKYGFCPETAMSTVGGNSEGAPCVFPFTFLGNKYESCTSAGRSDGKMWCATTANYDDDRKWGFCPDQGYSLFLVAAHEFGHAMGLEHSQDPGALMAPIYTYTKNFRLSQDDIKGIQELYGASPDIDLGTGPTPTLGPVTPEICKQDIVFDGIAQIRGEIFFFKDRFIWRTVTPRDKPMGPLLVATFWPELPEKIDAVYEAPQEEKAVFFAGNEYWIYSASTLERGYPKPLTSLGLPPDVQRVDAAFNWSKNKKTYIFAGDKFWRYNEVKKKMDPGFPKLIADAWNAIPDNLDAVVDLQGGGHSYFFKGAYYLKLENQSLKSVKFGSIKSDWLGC

As usually defined, the Ki is a measure of affinity in units of concentration, obtained from inhibition or displacement. Higher therefore signals a looser hold on the target. `CC#CCOc1ccc(S(=O)(=O)CCCS)cc1`: the Ki in experiment [1] is 1300 nM; in experiment [2] it was above 2500 nM; in experiment [3] it was 6300 nM; in experiment [4], 1700 nM; in experiment [5], 2700 nM. Turning to `CC#CCOc1ccc(S(=O)(=O)[C@@H]2CCC[C@@H](S)C2)cc1`, in experiment [6], the affinity, expressed as Ki, was 30 nM. Same read-out and setting: under `CC#CCNc1ccc(S(=O)(=O)CCCS)cc1` stands 4.5 nM. For the molecule `CC#CCNc1ccc(S(=O)(=O)CCS)cc1`, the affinity in experiment [6] corresponds to a Ki of 2 nM. This Ki is about 2.2-fold lower than that of the molecule before.

Consider `CC#CCNc1ccc(S(=O)(=O)[C@@H]2CCC[C@@H](S)C2)cc1`, for which the Ki in experiment [6] worked out at 17 nM. Consider `CC#CCOc1ccc(S(=O)(=O)C2CCC(S)C2)cc1` (stereo unspecified), for which, in experiment [6], the Ki was 50 nM. Against the preceding molecule, the Ki is about 2.9-fold higher.

`CC#CCOc1ccc(S(=O)(=O)CCS)cc1` returned a Ki in experiment [6] of 8 nM.
